Assay results published in US8785655B2, “Ionic liquid solvents” (Dublin City University, priority 2009, dated 2014).

Legend:
[1] = tested on: Staphylococcus aureus CCM 4516/08; test: Screen against bacteria, MIC/IC80; format: cell-based; conditions: SA
[2] = tested on: Klebsiella pneumoniae D 11750/08; test: Screen against bacteria, MIC/IC80; format: cell-based; conditions: KP
[3] = tested on: Candida albicans ATCC 44859; test: In vitro antifungal activity, MIC by microdilution (NCCLS M27-A)
[4] = tested on: Staphylococcus epidermidis H 6966/08; test: Screen against bacteria, MIC/IC80; format: cell-based; conditions: SE
[5] = tested on: Enterococcus sp. J 14365/08; test: Screen against bacteria, MIC/IC80; format: cell-based; conditions: EF
Candida tropicalis 156 = test: In vitro antifungal activity, MIC by microdilution (NCCLS M27-A); conditions: CT
Method: (§1) In vitro antifungal activities of the compounds were evaluated on the collection of fungal strains deposited at the Department of Biological and Medical Sciences, Faculty of Pharmacy, Charles University, Czech Republic. All the isolates were maintained on Sabouraud dextrose agar prior to being tested.
(§2) Minimum inhibitory concentrations (MICs) were determined by the microdilution format of the NCCLS M27-A guidelines. […] RPMI 1640 (Sevapharma, Prague) medium supplemented with L-glutamine and buffered with 0.165 M morpholinepropanesulfonic acid to pH 7.0 was used as the test medium. The wells of the microdilution tray contained 100 μl of the RPMI 1640 medium with 2-fold serial dilutions of the compounds (1000 to 0.24 μmol/l for the new compounds) and 100 μl of inoculum suspension. Fungal inoculum in RPMI 1640 was prepared to give a final concentration of 5×103±0.2 cfu·ml-1. The trays were incubated at 35° C. and MICs were read visually for filamentous fungi and photometrically for yeasts as an optical density (OD) at 540 nm after 24 h and 48 h. The MICs were defined as 80% inhibition of the growth of control. MICs were determined twice and in duplicate. The deviations from the usually obtained were no higher than the nearest concentration value up and down the dilution scale.

[6] = tested on: Candida albicans ATCC 90028; test: as above
Candida krusei ATCC 6258 = test: as above
Method: as §1, §2

[7] = tested on: Candida parapsilosis ATCC 22019; test: as above; conditions: CP
[8] = tested on: Klebsiella pneumoniae J 14368/08 ESBL-positive; test: Screen against bacteria, MIC/IC80; format: cell-based; conditions: KP-E
Escherichia coli CCM4517 = test: Screen against bacteria, MIC/IC80; format: cell-based; conditions: EC
[9] = tested on: Staphylococcus aureus H 5996/08 Methiciline-resistant; test: Screen against bacteria, MIC/IC80; format: cell-based; conditions: MRSA
[10] = tested on: Aspergillus fumigatus 231; test: In vitro antifungal activity, MIC by microdilution (NCCLS M27-A); conditions: AF
[11] = tested on: Trichophyton mentagrophytes 445; test: as above; conditions: TM
Absidia corymbifera 272 = test: as above; conditions: AC
[12] = tested on: Pseudomonas aeruginosa CCM 1961; test: Screen against bacteria, MIC/IC80; format: cell-based; conditions: PA
[13] = tested on: Candida lusitaniae 2446/l; test: In vitro antifungal activity, MIC by microdilution (NCCLS M27-A); conditions: CL
Candida glabrata 20/l = test: as above; conditions: CG
Candida krusei E28 = test: as above
Method: All the isolates were maintained on Sabouraud dextrose agar prior to being tested.
as §2

## CCCCCOC(=O)[C@@H](OC(=O)Cn1cc[n+](C)c1)c1ccccc1.[Br-] [KG824, S-3-methyl-1-[1-(pentoxycarbonyl)-1-phenylmethoxycarbonylmethyl]imidazolium bromide]
[1]; 24 h
  MIC/IC80: >1000 µM
[1]; 48 h
  MIC/IC80: >1000 µM
[2]; 24 h
  MIC/IC80: >1000 µM
[2]; 48 h
  MIC/IC80: >1000 µM
[3]; CA1, 24 h
  MIC/IC80: 500 µM
[3]; CA1, 48 h
  MIC/IC80: >1000 µM
[4]; 24 h
  MIC/IC80: >1000 µM
[4]; 48 h
  MIC/IC80: >1000 µM
[5]; 24 h
  MIC/IC80: >1000 µM
[5]; 48 h
  MIC/IC80: >1000 µM
Candida tropicalis 156; 24 h
  MIC/IC80: >1000 µM
Candida tropicalis 156; 48 h
  MIC/IC80: >1000 µM
[6]; CA2, 24 h
  MIC/IC80: 1000 µM
[6]; CA2, 48 h
  MIC/IC80: >1000 µM
Candida krusei ATCC 6258; CK1, 24 h
  MIC/IC80: 1000 µM
Candida krusei ATCC 6258; CK1, 48 h
  MIC/IC80: >1000 µM
[7]; 24 h
  MIC/IC80: >1000 µM
[7]; 48 h
  MIC/IC80: >1000 µM
[8]; 24 h
  MIC/IC80: >1000 µM
[8]; 48 h
  MIC/IC80: >1000 µM
Escherichia coli CCM4517; 24 h
  MIC/IC80: >1000 µM
Escherichia coli CCM4517; 48 h
  MIC/IC80: >1000 µM
[9]; 24 h
  MIC/IC80: >1000 µM
[9]; 48 h
  MIC/IC80: >1000 µM
[10]; 24 h
  MIC/IC80: 1000 µM
[10]; 48 h
  MIC/IC80: 1000 µM
[11]; 72 h
  MIC/IC80: 500 µM
[11]; 120 h
  MIC/IC80: 500 µM
Absidia corymbifera 272; 24 h
  MIC/IC80: 1000 µM
Absidia corymbifera 272; 48 h
  MIC/IC80: 1000 µM
[12]; 24 h
  MIC/IC80: >1000 µM
[12]; 48 h
  MIC/IC80: >1000 µM
[13]; 24 h
  MIC/IC80: >1000 µM
[13]; 48 h
  MIC/IC80: >1000 µM
Candida glabrata 20/l; 24 h
  MIC/IC80: 1000 µM
Candida glabrata 20/l; 48 h
  MIC/IC80: >1000 µM
Candida krusei E28; CK2, 24 h
  MIC/IC80: 1000 µM
Candida krusei E28; CK2, 48 h
  MIC/IC80: >1000 µM

## CCCCCOC(=O)[C@H](OC(=O)C[n+]1ccn(C)c1)c1ccccc1 [KG833, R-3-methyl-1-[1-(pentoxycarbonyl)-1-phenylmethoxycarbonylmethyl]imidazolium bromide]
[1]; 24 h
  MIC/IC80: 1000 µM
[1]; 48 h
  MIC/IC80: >1000 µM
[2]; 24 h
  MIC/IC80: >1000 µM
[2]; 48 h
  MIC/IC80: >1000 µM
[3]; CA1, 24 h
  MIC/IC80: 500 µM
[3]; CA1, 48 h
  MIC/IC80: >1000 µM
[4]; 24 h
  MIC/IC80: >1000 µM
[4]; 48 h
  MIC/IC80: >1000 µM
[5]; 24 h
  MIC/IC80: >1000 µM
[5]; 48 h
  MIC/IC80: >1000 µM
Candida tropicalis 156; 24 h
  MIC/IC80: 1000 µM
Candida tropicalis 156; 48 h
  MIC/IC80: >1000 µM
[6]; CA2, 24 h
  MIC/IC80: 1000 µM
[6]; CA2, 48 h
  MIC/IC80: >1000 µM
Candida krusei ATCC 6258; CK1, 24 h
  MIC/IC80: 1000 µM
Candida krusei ATCC 6258; CK1, 48 h
  MIC/IC80: >1000 µM
[7]; 24 h
  MIC/IC80: >1000 µM
[7]; 48 h
  MIC/IC80: >1000 µM
[8]; 24 h
  MIC/IC80: >1000 µM
[8]; 48 h
  MIC/IC80: >1000 µM
Escherichia coli CCM4517; 24 h
  MIC/IC80: >1000 µM
Escherichia coli CCM4517; 48 h
  MIC/IC80: >1000 µM
[9]; 24 h
  MIC/IC80: >1000 µM
[9]; 48 h
  MIC/IC80: >1000 µM
[10]; 24 h
  MIC/IC80: 1000 µM
[10]; 48 h
  MIC/IC80: 1000 µM
[11]; 72 h
  MIC/IC80: 500 µM
[11]; 120 h
  MIC/IC80: 500 µM
Absidia corymbifera 272; 24 h
  MIC/IC80: 1000 µM
Absidia corymbifera 272; 48 h
  MIC/IC80: 1000 µM
[12]; 24 h
  MIC/IC80: >1000 µM
[12]; 48 h
  MIC/IC80: >1000 µM
[13]; 24 h
  MIC/IC80: >1000 µM
[13]; 48 h
  MIC/IC80: >1000 µM
Candida glabrata 20/l; 24 h
  MIC/IC80: 1000 µM
Candida glabrata 20/l; 48 h
  MIC/IC80: >1000 µM
Candida krusei E28; CK2, 24 h
  MIC/IC80: 1000 µM
Candida krusei E28; CK2, 48 h
  MIC/IC80: >1000 µM

## R-3-methyl-1-[1-(methoxycarbonyl)-1-phenylmethoxycarbonylmethyl]imidazolium octyl sulphate [KG87]
[1]; 24 h
  MIC/IC80: >1000 µM
[1]; 48 h
  MIC/IC80: >1000 µM
[2]; 24 h
  MIC/IC80: >1000 µM
[2]; 48 h
  MIC/IC80: >1000 µM
[3]; CA1, 24 h
  MIC/IC80: >1000 µM
[3]; CA1, 48 h
  MIC/IC80: >1000 µM
[4]; 24 h
  MIC/IC80: >1000 µM
[4]; 48 h
  MIC/IC80: >1000 µM
[5]; 24 h
  MIC/IC80: >1000 µM
[5]; 48 h
  MIC/IC80: >1000 µM
Candida tropicalis 156; 24 h
  MIC/IC80: >1000 µM
Candida tropicalis 156; 48 h
  MIC/IC80: >1000 µM
[6]; CA2, 24 h
  MIC/IC80: >1000 µM
[6]; CA2, 48 h
  MIC/IC80: >1000 µM
Candida krusei ATCC 6258; CK1, 24 h
  MIC/IC80: 1000 µM
Candida krusei ATCC 6258; CK1, 48 h
  MIC/IC80: >1000 µM
[7]; 24 h
  MIC/IC80: >1000 µM
[7]; 48 h
  MIC/IC80: >1000 µM
[8]; 24 h
  MIC/IC80: >1000 µM
[8]; 48 h
  MIC/IC80: >1000 µM
Escherichia coli CCM4517; 24 h
  MIC/IC80: >1000 µM
Escherichia coli CCM4517; 48 h
  MIC/IC80: >1000 µM
[9]; 24 h
  MIC/IC80: >1000 µM
[9]; 48 h
  MIC/IC80: >1000 µM
[10]; 24 h
  MIC/IC80: >1000 µM
[10]; 48 h
  MIC/IC80: >1000 µM
[11]; 72 h
  MIC/IC80: 1000 µM
[11]; 120 h
  MIC/IC80: >1000 µM
Absidia corymbifera 272; 24 h
  MIC/IC80: >1000 µM
Absidia corymbifera 272; 48 h
  MIC/IC80: >1000 µM
[12]; 24 h
  MIC/IC80: >1000 µM
[12]; 48 h
  MIC/IC80: >1000 µM
[13]; 24 h
  MIC/IC80: >1000 µM
[13]; 48 h
  MIC/IC80: >1000 µM
Candida glabrata 20/l; 24 h
  MIC/IC80: >1000 µM
Candida glabrata 20/l; 48 h
  MIC/IC80: >1000 µM
Candida krusei E28; CK2, 24 h
  MIC/IC80: 1000 µM
Candida krusei E28; CK2, 48 h
  MIC/IC80: >1000 µM
